Laboratory results published in US4450269A, “Mono-5-substituted-3-chloro-4H-1,2,6-thiadiazin-4-one antifungal agents” (FMC Corporation, priority 1980, dated 1984).
Where a name gives a salt, the structure may show the parent alone.

What was measured:
Experiment in all cases: Spore germination test
Assay type in all cases: cell-based
Alternaria solani = details: AS, 48 hours
Description: (§1) The test chemical was dissolved or suspended in acetone in an amount such that 0.8 ml of the resulting suspension or solution, mixed with 40 ml water agar produced a water agar solution containing 40, 10, 2.5 and 1 ppm of test chemical. The resulting agar solution, at 50° C., was then divided equally between two sterile petri dishes, each having four separated quadrants, and allowed to solidify. […] quadrants of each dish were flooded with 0.1 ml of a spore suspension in sterile water. Spores of two pathogens, Erysiphe polygoni and Uromyes phaseoli, from infected plant leaves, were brushed on the remaining two quadrants. The tests were then incubated 48 hours, at 24° C.
(§2) Readings were then taken and the percentage of germinated spores calculated. From this percentage, a spore germination rating was assigned as follows: […]

Botrytis cinerea = details: BC, 48 hours
Description: as §1, §2

Erysiphe polygoni = details: EP, 48 hours
Description: as §1, §2

## 3-chloro-5-(bromophenoxy)-4H-1,2,6-thiadiazin-4-one [Compound 33]
Alternaria solani; 1.0 ppm
  Spore Germination Rating: 1 (10-40)
Alternaria solani; 2.5 ppm
  Spore Germination Rating: 0 (0-10)
Alternaria solani; 10 ppm
  Spore Germination Rating: 0 (0-10)
Alternaria solani; 40 ppm
  Spore Germination Rating: 0 (0-10)
Botrytis cinerea; 1.0 ppm
  Spore Germination Rating: 4 (80-100)
Botrytis cinerea; 2.5 ppm
  Spore Germination Rating: 3 (60-80)
Botrytis cinerea; 10 ppm
  Spore Germination Rating: 0 (0-10)
Botrytis cinerea; 40 ppm
  Spore Germination Rating: 0 (0-10)
Erysiphe polygoni; 1.0 ppm
  Spore Germination Rating: 0 (0-10)
Erysiphe polygoni; 2.5 ppm
  Spore Germination Rating: 0 (0-10)
Erysiphe polygoni; 10 ppm
  Spore Germination Rating: 0 (0-10)
Erysiphe polygoni; 40 ppm
  Spore Germination Rating: 0 (0-10)

## 3-chloro-5-[methylaminocarbonyloxy)phenoxyl]-4H-1,2,6-thiadiazin-4-one [Compound 36]
Alternaria solani; 1.0 ppm
  Spore Germination Rating: 4 (80-100)
Alternaria solani; 2.5 ppm
  Spore Germination Rating: 4 (80-100)
Alternaria solani; 10 ppm
  Spore Germination Rating: 2 (40-60)
Alternaria solani; 40 ppm
  Spore Germination Rating: 0 (0-10)
Botrytis cinerea; 1.0 ppm
  Spore Germination Rating: 4 (80-100)
Botrytis cinerea; 2.5 ppm
  Spore Germination Rating: 4 (80-100)
Botrytis cinerea; 10 ppm
  Spore Germination Rating: 4 (80-100)
Botrytis cinerea; 40 ppm
  Spore Germination Rating: 2 (40-60)
Erysiphe polygoni; 1.0 ppm
  Spore Germination Rating: 4 (80-100)
Erysiphe polygoni; 2.5 ppm
  Spore Germination Rating: 3 (60-80)
Erysiphe polygoni; 10 ppm
  Spore Germination Rating: 1 (10-40)
Erysiphe polygoni; 40 ppm
  Spore Germination Rating: 1 (10-40)

## O=c1c(Cl)nsnc1Oc1ccccc1 [Compound 2, 3-chloro-5-phenoxy-4H--1,2,6-thiadiazin-4-one]
Alternaria solani; 1.0 ppm
  Spore Germination Rating: 4 (80-100)
Alternaria solani; 2.5 ppm
  Spore Germination Rating: 0 (0-10)
Alternaria solani; 10 ppm
  Spore Germination Rating: 0 (0-10)
Alternaria solani; 40 ppm
  Spore Germination Rating: 0 (0-10)
Botrytis cinerea; 1.0 ppm
  Spore Germination Rating: 4 (80-100)
Botrytis cinerea; 2.5 ppm
  Spore Germination Rating: 4 (80-100)
Botrytis cinerea; 10 ppm
  Spore Germination Rating: 0 (0-10)
Botrytis cinerea; 40 ppm
  Spore Germination Rating: 0 (0-10)
Erysiphe polygoni; 1.0 ppm
  Spore Germination Rating: 4 (80-100)
Erysiphe polygoni; 2.5 ppm
  Spore Germination Rating: 4 (80-100)
Erysiphe polygoni; 10 ppm
  Spore Germination Rating: 3 (60-80)
Erysiphe polygoni; 40 ppm
  Spore Germination Rating: 1 (10-40)

## Cc1ccc(Oc2nsnc(Cl)c2=O)cc1 [Compound 3, 3-chloro-5-(4-methylphenoxy)-4H--1,2,6-thiadiazin-4-one]
Alternaria solani; 1.0 ppm
  Spore Germination Rating: 4 (80-100)
Alternaria solani; 2.5 ppm
  Spore Germination Rating: 4 (80-100)
Alternaria solani; 10 ppm
  Spore Germination Rating: 0 (0-10)
Alternaria solani; 40 ppm
  Spore Germination Rating: 0 (0-10)
Botrytis cinerea; 1.0 ppm
  Spore Germination Rating: 4 (80-100)
Botrytis cinerea; 2.5 ppm
  Spore Germination Rating: 4 (80-100)
Botrytis cinerea; 10 ppm
  Spore Germination Rating: 0 (0-10)
Botrytis cinerea; 40 ppm
  Spore Germination Rating: 0 (0-10)
Erysiphe polygoni; 1.0 ppm
  Spore Germination Rating: 4 (80-100)
Erysiphe polygoni; 2.5 ppm
  Spore Germination Rating: 4 (80-100)
Erysiphe polygoni; 10 ppm
  Spore Germination Rating: 4 (80-100)
Erysiphe polygoni; 40 ppm
  Spore Germination Rating: 1 (10-40)

## CC(C)(C)c1ccc(Oc2nsnc(Cl)c2=O)cc1 [Compound 4, 3-chloro-5-(4-tert-butylphnoxy)-4H--1,2,6-thiadiazin-4-one]
Alternaria solani; 1.0 ppm
  Spore Germination Rating: 4 (80-100)
Alternaria solani; 2.5 ppm
  Spore Germination Rating: 4 (80-100)
Alternaria solani; 10 ppm
  Spore Germination Rating: 4 (80-100)
Alternaria solani; 40 ppm
  Spore Germination Rating: 4 (80-100)
Botrytis cinerea; 1.0 ppm
  Spore Germination Rating: 4 (80-100)
Botrytis cinerea; 2.5 ppm
  Spore Germination Rating: 4 (80-100)
Botrytis cinerea; 10 ppm
  Spore Germination Rating: 4 (80-100)
Botrytis cinerea; 40 ppm
  Spore Germination Rating: 2 (40-60)
Erysiphe polygoni; 1.0 ppm
  Spore Germination Rating: 4 (80-100)
Erysiphe polygoni; 2.5 ppm
  Spore Germination Rating: 3 (60-80)
Erysiphe polygoni; 10 ppm
  Spore Germination Rating: 2 (40-60)
Erysiphe polygoni; 40 ppm
  Spore Germination Rating: 0 (0-10)

## COc1ccc(Oc2nsnc(Cl)c2=O)cc1 [Compound 5, 3-chloro-5-(4-methoxyphenoxy)4H--1,2,6-thiadiazin-4-one]
Alternaria solani; 1.0 ppm
  Spore Germination Rating: 2 (40-60)
Alternaria solani; 2.5 ppm
  Spore Germination Rating: 0 (0-10)
Alternaria solani; 10 ppm
  Spore Germination Rating: 0 (0-10)
Alternaria solani; 40 ppm
  Spore Germination Rating: 0 (0-10)
Botrytis cinerea; 1.0 ppm
  Spore Germination Rating: 4 (80-100)
Botrytis cinerea; 2.5 ppm
  Spore Germination Rating: 4 (80-100)
Botrytis cinerea; 10 ppm
  Spore Germination Rating: 1 (10-40)
Botrytis cinerea; 40 ppm
  Spore Germination Rating: 0 (0-10)
Erysiphe polygoni; 1.0 ppm
  Spore Germination Rating: 4 (80-100)
Erysiphe polygoni; 2.5 ppm
  Spore Germination Rating: 4 (80-100)
Erysiphe polygoni; 10 ppm
  Spore Germination Rating: 4 (80-100)
Erysiphe polygoni; 40 ppm
  Spore Germination Rating: 0 (0-10)

## CCCCOc1ccc(Oc2nsnc(Cl)c2=O)cc1 [Compound 6, 3-chloro-5-(4-n-butoxyphenoxy)-4H--1,2,6-thiadiazin-4-one]
Alternaria solani; 1.0 ppm
  Spore Germination Rating: 4 (80-100)
Alternaria solani; 2.5 ppm
  Spore Germination Rating: 4 (80-100)
Alternaria solani; 10 ppm
  Spore Germination Rating: 4 (80-100)
Alternaria solani; 40 ppm
  Spore Germination Rating: 4 (80-100)
Botrytis cinerea; 1.0 ppm
  Spore Germination Rating: 4 (80-100)
Botrytis cinerea; 2.5 ppm
  Spore Germination Rating: 4 (80-100)
Botrytis cinerea; 10 ppm
  Spore Germination Rating: 4 (80-100)
Botrytis cinerea; 40 ppm
  Spore Germination Rating: 4 (80-100)
Erysiphe polygoni; 1.0 ppm
  Spore Germination Rating: 0 (0-10)
Erysiphe polygoni; 2.5 ppm
  Spore Germination Rating: 0 (0-10)
Erysiphe polygoni; 10 ppm
  Spore Germination Rating: 0 (0-10)
Erysiphe polygoni; 40 ppm
  Spore Germination Rating: 0 (0-10)

## CCOC(=O)c1ccc(Oc2nsnc(Cl)c2=O)cc1 [Compound 7, 3-chloro-5-(4-ethoxycarbonylphenoxy)-4H--1,2,6-thiadiazin-4-one]
Alternaria solani; 1.0 ppm
  Spore Germination Rating: 4 (80-100)
Alternaria solani; 2.5 ppm
  Spore Germination Rating: 4 (80-100)
Alternaria solani; 10 ppm
  Spore Germination Rating: 4 (80-100)
Alternaria solani; 40 ppm
  Spore Germination Rating: 4 (80-100)
Botrytis cinerea; 1.0 ppm
  Spore Germination Rating: 4 (80-100)
Botrytis cinerea; 2.5 ppm
  Spore Germination Rating: 3 (60-80)
Botrytis cinerea; 10 ppm
  Spore Germination Rating: 2 (40-60)
Botrytis cinerea; 40 ppm
  Spore Germination Rating: 3 (60-80)
Erysiphe polygoni; 1.0 ppm
  Spore Germination Rating: 4 (80-100)
Erysiphe polygoni; 2.5 ppm
  Spore Germination Rating: 3 (60-80)
Erysiphe polygoni; 10 ppm
  Spore Germination Rating: 2 (40-60)
Erysiphe polygoni; 40 ppm
  Spore Germination Rating: 0 (0-10)

## CC(=O)Nc1ccc(Oc2nsnc(Cl)c2=O)cc1 [Compound 8, 5-(4-acetylaminophenoxy)-3-chloro-4H--1,2,6-thiadiazin-4-one]
Alternaria solani; 1.0 ppm
  Spore Germination Rating: 3 (60-80)
Alternaria solani; 2.5 ppm
  Spore Germination Rating: 2 (40-60)
Alternaria solani; 10 ppm
  Spore Germination Rating: 2 (40-60)
Alternaria solani; 40 ppm
  Spore Germination Rating: 0 (0-10)
Botrytis cinerea; 1.0 ppm
  Spore Germination Rating: 4 (80-100)
Botrytis cinerea; 2.5 ppm
  Spore Germination Rating: 4 (80-100)
Botrytis cinerea; 10 ppm
  Spore Germination Rating: 4 (80-100)
Botrytis cinerea; 40 ppm
  Spore Germination Rating: 4 (80-100)
Erysiphe polygoni; 1.0 ppm
  Spore Germination Rating: 4 (80-100)
Erysiphe polygoni; 2.5 ppm
  Spore Germination Rating: 4 (80-100)
Erysiphe polygoni; 10 ppm
  Spore Germination Rating: 4 (80-100)
Erysiphe polygoni; 40 ppm
  Spore Germination Rating: 2 (40-60)

## O=c1c(Cl)nsnc1Oc1ccc([N+](=O)[O-])cc1 [Compound 9, 3-chloro-5-(4-nitrophenoxy)-4H--1,2,6-thiadiazin-4-one]
Alternaria solani; 1.0 ppm
  Spore Germination Rating: 0 (0-10)
Alternaria solani; 2.5 ppm
  Spore Germination Rating: 0 (0-10)
Alternaria solani; 10 ppm
  Spore Germination Rating: 0 (0-10)
Alternaria solani; 40 ppm
  Spore Germination Rating: 0 (0-10)
Botrytis cinerea; 1.0 ppm
  Spore Germination Rating: 0 (0-10)
Botrytis cinerea; 2.5 ppm
  Spore Germination Rating: 0 (0-10)
Botrytis cinerea; 10 ppm
  Spore Germination Rating: 0 (0-10)
Botrytis cinerea; 40 ppm
  Spore Germination Rating: 0 (0-10)
Erysiphe polygoni; 1.0 ppm
  Spore Germination Rating: 4 (80-100)
Erysiphe polygoni; 2.5 ppm
  Spore Germination Rating: 4 (80-100)
Erysiphe polygoni; 10 ppm
  Spore Germination Rating: 4 (80-100)
Erysiphe polygoni; 40 ppm
  Spore Germination Rating: 4 (80-100)

## N#Cc1ccc(Oc2nsnc(Cl)c2=O)cc1 [Compound 10, 3-chloro-5-(4-cyanophenoxy)-4H--1,2,6-thiadiazin-4-one]
Alternaria solani; 1.0 ppm
  Spore Germination Rating: 1 (10-40)
Alternaria solani; 2.5 ppm
  Spore Germination Rating: 1 (10-40)
Alternaria solani; 10 ppm
  Spore Germination Rating: 1 (10-40)
Alternaria solani; 40 ppm
  Spore Germination Rating: 1 (10-40)
Botrytis cinerea; 1.0 ppm
  Spore Germination Rating: 2 (40-60)
Botrytis cinerea; 2.5 ppm
  Spore Germination Rating: 0 (0-10)
Botrytis cinerea; 10 ppm
  Spore Germination Rating: 0 (0-10)
Botrytis cinerea; 40 ppm
  Spore Germination Rating: 0 (0-10)
Erysiphe polygoni; 1.0 ppm
  Spore Germination Rating: 2 (40-60)
Erysiphe polygoni; 2.5 ppm
  Spore Germination Rating: 2 (40-60)
Erysiphe polygoni; 10 ppm
  Spore Germination Rating: 2 (40-60)
Erysiphe polygoni; 40 ppm
  Spore Germination Rating: 1 (10-40)

## O=c1c(Cl)nsnc1Oc1ccc(F)cc1 [Compound 11, 3-chloro-5-(4-fluorophenoxy)-4H--1,2,6-thiadiazin-4-one]
Alternaria solani; 1.0 ppm
  Spore Germination Rating: 4 (80-100)
Alternaria solani; 2.5 ppm
  Spore Germination Rating: 0 (0-10)
Alternaria solani; 10 ppm
  Spore Germination Rating: 0 (0-10)
Alternaria solani; 40 ppm
  Spore Germination Rating: 0 (0-10)
Botrytis cinerea; 1.0 ppm
  Spore Germination Rating: 4 (80-100)
Botrytis cinerea; 2.5 ppm
  Spore Germination Rating: 1 (10-40)
Botrytis cinerea; 10 ppm
  Spore Germination Rating: 0 (0-10)
Botrytis cinerea; 40 ppm
  Spore Germination Rating: 0 (0-10)
Erysiphe polygoni; 1.0 ppm
  Spore Germination Rating: 0 (0-10)
Erysiphe polygoni; 2.5 ppm
  Spore Germination Rating: 0 (0-10)
Erysiphe polygoni; 10 ppm
  Spore Germination Rating: 0 (0-10)
Erysiphe polygoni; 40 ppm
  Spore Germination Rating: 0 (0-10)

## O=c1c(Cl)nsnc1Oc1ccc(Cl)cc1 [Compound 12, 3-chloro-5-(4-chlorophenoxy)-4H--1,2,6-thiadiazin-4-one]
Alternaria solani; 1.0 ppm
  Spore Germination Rating: 3 (60-80)
Alternaria solani; 2.5 ppm
  Spore Germination Rating: 1 (10-40)
Alternaria solani; 10 ppm
  Spore Germination Rating: 1 (10-40)
Alternaria solani; 40 ppm
  Spore Germination Rating: 0 (0-10)
Botrytis cinerea; 1.0 ppm
  Spore Germination Rating: 0 (0-10)
Botrytis cinerea; 2.5 ppm
  Spore Germination Rating: 2 (40-60)
Botrytis cinerea; 10 ppm
  Spore Germination Rating: 0 (0-10)
Botrytis cinerea; 40 ppm
  Spore Germination Rating: 0 (0-10)
Erysiphe polygoni; 1.0 ppm
  Spore Germination Rating: 4 (80-100)
Erysiphe polygoni; 2.5 ppm
  Spore Germination Rating: 4 (80-100)
Erysiphe polygoni; 10 ppm
  Spore Germination Rating: 2 (40-60)
Erysiphe polygoni; 40 ppm
  Spore Germination Rating: 0 (0-10)

## Nc1ccc(Oc2nsnc(Cl)c2=O)cc1 [Compound 27, 5-(4-aminophenoxy)-3-chloro-4H--1,2,6-thiadiazine-4-one hydrochloride]
Alternaria solani; 2.5 ppm, hydrochloride
  Spore Germination Rating: 4 (80-100)
Alternaria solani; 10 ppm, hydrochloride
  Spore Germination Rating: 3 (60-80)
Botrytis cinerea; 1.0 ppm, hydrochloride
  Spore Germination Rating: 1 (10-40)
